Results reported in PubChem BioAssay (NCI).
Values joined by “and” are separate entries in the source; they are usually repeats but may differ in a detail not shown here. Equal values may be shown once.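 Interpolation was linear, between the two tested concentrations surrounding the appropriate level; five concentrations were tested over 48 hours in 96-well plates. The concentration for 50% growth inhibition is given as GI50. TGI denotes the concentration required for complete inhibition of growth.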

What was measured:
Test in all cases: DTP human tumour cell line panel, 48 h
SK-OV-3 ovarian = tested on: SK-OV-3 ovarian
HOP-92 NSCLC = tested on: HOP-92 NSCLC
UACC-62 melanoma = tested on: UACC-62 melanoma
UACC-257 melanoma = tested on: UACC-257 melanoma
SW-620 colon = tested on: SW-620 colon
PC-3 prostate = tested on: PC-3 prostate
OVCAR-3 ovarian = tested on: OVCAR-3 ovarian
MCF7 breast = tested on: MCF7 breast
RXF 393 renal = tested on: RXF 393 renal
OVCAR-4 ovarian = tested on: OVCAR-4 ovarian

Row | SMILES | TGI (SK-OV-3 ovarian) | TGI (HOP-92 NSCLC) | TGI (UACC-62 melanoma) | TGI (UACC-257 melanoma) | TGI (SW-620 colon) | TGI (PC-3 prostate) | TGI (OVCAR-3 ovarian) | TGI (MCF7 breast) | TGI (RXF 393 renal) | TGI (OVCAR-4 ovarian) | GI50 (HOP-92 NSCLC) | GI50 (UACC-62 melanoma) | GI50 (UACC-257 melanoma) | GI50 (SW-620 colon) | GI50 (PC-3 prostate) | GI50 (OVCAR-3 ovarian) | GI50 (MCF7 breast) | GI50 (RXF 393 renal) | GI50 (OVCAR-4 ovarian) | GI50 (SK-OV-3 ovarian)
1 | NCCCCNOCCCN | > 100 µM | > 100 µM | > 100 µM | > 100 µM | > 100 µM | > 100 µM | > 100 µM | > 100 µM | > 100 µM | > 100 µM |  |  |  |  |  |  |  |  |  | 
2 | C/C=C(/CCC1NCCc2c1[nH]c1ccccc21)[Si](C)(C)C (stereo unspecified) | > 100 µM and 26.2 µM | 90.1 µM and 11.9 µM | > 100 µM and 26.5 µM |  |  |  | > 100 µM and 13.9 µM |  |  | > 100 µM and 11.9 µM | 27 µM and 2.9 µM |  |  |  |  |  |  |  |  | 
3 | C=CCN1C(=O)NC(=O)/C(=C/c2c3ccccc3cc3ccccc23)C1=O | 66 µM | 54.4 µM | 50.4 µM |  | > 100 µM |  | 42.3 µM |  | 34.6 µM | 47.5 µM |  |  |  |  |  |  |  |  |  | 
4 | O=c1[nH]c2ccccc2c2oc3ccccc3c12 | > 100 µM | > 100 µM | > 100 µM | > 100 µM | > 100 µM | > 100 µM | > 100 µM | > 100 µM | > 100 µM | > 100 µM |  |  |  |  |  |  |  |  |  | 
5 | O=S1(=O)C(=C(c2ccccc2)c2ccccc2)S(=O)(=O)c2ccccc21 | > 100 µM | 50.8 µM | > 100 µM | > 100 µM | > 100 µM |  | > 100 µM | > 100 µM | > 100 µM | > 100 µM |  |  |  |  |  |  |  |  |  | 
6 | O=c1c(-c2ccccc2)c(SCCCN2CCCCC2)n(-c2ccccc2)c(=S)n1-c1ccccc1 | 45.4 µM | 30.1 µM | 30.1 µM | 31.9 µM | 41.9 µM | 39.4 µM | 34.3 µM | 31.4 µM | 27.7 µM | 58 µM |  |  |  |  |  |  |  |  |  | 
7 | COC(=O)C(C)NP(=O)(OCc1cccc(Cn2cnc3c(N)ncnc32)c1)Oc1ccccc1 (stereo unspecified) |  | > 100 µM | > 100 µM | > 100 µM | > 100 µM | > 100 µM | > 100 µM | 66.6 µM | > 100 µM | > 100 µM | 54.1 µM | 56.3 µM | > 100 µM | > 100 µM | > 100 µM | 43 µM | 14.9 µM | 27.8 µM | > 100 µM | 
8 | O=c1c2ccccc2nc2n1CCc1c-2[nH]c2ccccc12 | 37.8 µM | 31 µM |  |  | 52.9 µM | 40.9 µM |  |  | 34.5 µM | 43.8 µM |  |  |  |  |  |  |  |  | 18.9 µM | 
9 | CCOC(=O)c1c(Cl)c2c(n1Cc1ccccc1)-c1oncc1CCC2 | > 100 µM |  | > 100 µM |  | > 100 µM | > 100 µM |  | > 100 µM |  |  |  | 4.01 µM |  | 3.81 µM | 3.17 µM |  | 3.21 µM |  |  | > 100 µM
10 | COC(=O)C1=C(O)C(C(=O)OC)[C@@]2(O)[C@@H](C(=O)OC)[C@H](C)C[C@@H]1[C@@H]2C(=O)OC (stereo partly specified) | 72.9 µM |  | > 100 µM | > 100 µM |  |  | 40.2 µM | > 100 µM | 58.9 µM |  |  |  |  |  |  |  |  |  |  | 
11 | CC(C)(CCCCC(C)(C)NC1=NCCO1)NC1=NCCO1 | > 10 µM |  | > 10 µM |  | > 10 µM | > 10 µM | > 10 µM | > 10 µM | > 10 µM | > 10 µM |  |  |  |  |  |  |  |  |  | 
